Test results published in patent publication US20110269834A1 (priority 2008, published 2011).
Read-outs that look alike come from different tables or passages of the source.

Key:
[1] = tested on: SARS-CoV; experiment: microbe, parasite or virus in culture; type: cell-based, SARS-CoV Urbani strain
[2] = molecular target: T1, SARS-CoV PLpro (Severe acute respiratory syndrome coronavirus, UniProt P0C6X7); experiment: biochemical; conditions: read-out: percent inhibition of PLpro in primary screen
[3] = molecular target: T1, SARS-CoV PLpro; experiment: biochemical; conditions: for inhibition at 100 µM: read-out: inhibition of PLpro activity
[4] = molecular target: T2, hUCH-L3 (Homo sapiens, UniProt P15374); experiment: Inhibitor specificity assay, UCH-L3; type: biochemical; conditions: Table 6; assayed with 100 μM inhibitor, ubiquitin-AMC substrate
T2 construct: purchased Biomol International
T2 sequence (P15374 1-230): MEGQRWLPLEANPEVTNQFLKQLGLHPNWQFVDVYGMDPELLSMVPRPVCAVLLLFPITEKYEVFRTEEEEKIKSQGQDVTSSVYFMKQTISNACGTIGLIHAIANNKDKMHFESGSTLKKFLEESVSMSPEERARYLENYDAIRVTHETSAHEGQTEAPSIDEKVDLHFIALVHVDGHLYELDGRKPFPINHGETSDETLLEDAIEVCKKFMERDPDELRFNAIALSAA

[5] = tested on: Vero E6 cells
[6] = molecular target: T3, hUCH-L1 (Homo sapiens, UniProt P09936); experiment: Inhibitor specificity assay, UCH-L1; type: biochemical; conditions: Table 6; assayed with 100 μM inhibitor, ubiquitin-AMC substrate
T3 construct: purchased Biomol International
T3 sequence (P09936 1-223): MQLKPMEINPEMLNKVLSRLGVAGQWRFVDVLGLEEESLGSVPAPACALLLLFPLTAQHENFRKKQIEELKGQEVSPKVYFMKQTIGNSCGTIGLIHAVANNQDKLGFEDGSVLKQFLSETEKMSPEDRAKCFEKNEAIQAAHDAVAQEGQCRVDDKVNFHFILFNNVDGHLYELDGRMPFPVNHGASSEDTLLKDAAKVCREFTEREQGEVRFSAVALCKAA

[7] = molecular target: T1, SARS-CoV PLpro; type: biochemical
[8] = molecular target: T4, HAUSP (Homo sapiens, UniProt Q93009); experiment: Inhibitor specificity assay, HAUSP; type: biochemical; conditions: Table 6; assayed with 100 μM inhibitor, ubiquitin-AMC substrate
T4 construct: purchased Boston Biochem

[9] = molecular target: T1, SARS-CoV PLpro; type: biochemical; remark: listed apart in the source
[10] = molecular target: T5, hUSP18 (Homo sapiens, UniProt Q9UMW8); experiment: Inhibitor specificity assay, USP18; type: biochemical; conditions: Table 6; assayed with 100 μM inhibitor, ISG15-AMC substrate
T5 construct: purchased Boston Biochem
T5 sequence (Q9UMW8 1-372): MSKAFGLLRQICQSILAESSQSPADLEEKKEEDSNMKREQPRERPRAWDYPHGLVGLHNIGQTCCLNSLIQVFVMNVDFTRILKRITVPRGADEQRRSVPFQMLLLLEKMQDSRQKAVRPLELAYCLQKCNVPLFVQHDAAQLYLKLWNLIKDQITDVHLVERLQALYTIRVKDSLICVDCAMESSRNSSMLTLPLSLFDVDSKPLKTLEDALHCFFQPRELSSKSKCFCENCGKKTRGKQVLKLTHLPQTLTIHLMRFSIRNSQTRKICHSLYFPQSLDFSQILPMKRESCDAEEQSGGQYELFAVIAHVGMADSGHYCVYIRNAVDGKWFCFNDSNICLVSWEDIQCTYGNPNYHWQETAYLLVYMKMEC

[11] = Severe acute respiratory syndrome coronavirus, Vero C1008
[12] = Severe acute respiratory syndrome coronavirus, Vero C1008, 48 h, read-out: EC50 of antiviral activity
[13] = read-out: IC50 (μM), enzyme inhibitory activity

T4 sequence (Q93009 whole entry): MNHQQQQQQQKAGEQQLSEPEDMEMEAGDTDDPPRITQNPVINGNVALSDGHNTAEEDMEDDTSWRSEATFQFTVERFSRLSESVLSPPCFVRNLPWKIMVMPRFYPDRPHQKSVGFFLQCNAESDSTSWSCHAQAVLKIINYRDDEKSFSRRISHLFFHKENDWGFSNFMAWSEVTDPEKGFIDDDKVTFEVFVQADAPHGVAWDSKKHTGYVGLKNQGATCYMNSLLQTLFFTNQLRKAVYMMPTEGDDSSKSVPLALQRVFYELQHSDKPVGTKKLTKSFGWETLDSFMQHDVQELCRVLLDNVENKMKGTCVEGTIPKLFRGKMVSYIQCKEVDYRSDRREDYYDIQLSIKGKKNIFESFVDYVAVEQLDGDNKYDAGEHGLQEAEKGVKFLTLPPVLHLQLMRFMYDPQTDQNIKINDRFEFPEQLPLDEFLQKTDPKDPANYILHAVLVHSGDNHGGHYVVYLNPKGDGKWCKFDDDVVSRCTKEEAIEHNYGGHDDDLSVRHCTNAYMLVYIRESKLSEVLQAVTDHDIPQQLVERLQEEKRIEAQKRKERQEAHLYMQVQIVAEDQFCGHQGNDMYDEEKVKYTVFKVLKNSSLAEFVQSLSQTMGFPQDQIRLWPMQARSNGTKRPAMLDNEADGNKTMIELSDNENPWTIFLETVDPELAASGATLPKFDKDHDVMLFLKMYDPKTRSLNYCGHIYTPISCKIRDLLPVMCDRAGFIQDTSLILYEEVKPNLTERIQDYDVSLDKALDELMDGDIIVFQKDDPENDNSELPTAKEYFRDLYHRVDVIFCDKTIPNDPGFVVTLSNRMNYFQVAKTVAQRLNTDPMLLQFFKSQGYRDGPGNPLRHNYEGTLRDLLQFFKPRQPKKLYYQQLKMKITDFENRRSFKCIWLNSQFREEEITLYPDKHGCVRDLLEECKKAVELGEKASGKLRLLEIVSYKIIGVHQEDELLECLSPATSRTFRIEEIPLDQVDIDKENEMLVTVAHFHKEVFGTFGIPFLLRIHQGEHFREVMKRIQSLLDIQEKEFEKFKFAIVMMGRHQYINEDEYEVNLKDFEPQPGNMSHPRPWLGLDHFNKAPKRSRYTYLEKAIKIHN

## 5-Methylamino-2-methyl-N—[(R)-1-(1-naphthyl)ethyl]benzamide [Compound 2]
[1]; Table 5, antiviral activity against SARS-CoV, highest concentration tested 50 uM, read-out: EC50
  EC50: 6 ± 0.1 µM

## Cc1ccccc1C(=O)NC(C)c1ccc2ccccc2c1 (racemic) [Compound 1, 2-methyl-N-[1-(2-naphthyl)ethyl]benzamide]
[2]
  inhibition at 20 µM: > 35%
[1]; [11]
  EC50: > 50 µM

## CCC(NC(=O)c1ccccc1C)c1ccc2ccccc2c1 (racemic) [Compound 14, 2-Methyl-N-[1-(2-naphthyl)propyl]benzamide]
[3]
  IC50: > 200 µM

## Cc1ccc(N)cc1C(=O)NC(C)c1ccnc2ccccc12 (racemic) [Compound 50]
[3]
  IC50: 1.85 µM

## Cc1cc([N+](=O)[O-])ccc1C(=O)NC(C)c1ccnc2ccccc12 (racemic) [Compound 51]
[3]
  IC50: 3.5 µM

## Cc1cc(N)ccc1C(=O)NC(C)c1ccnc2ccccc12 (racemic) [Compound 52]
[3]
  IC50: 2.3 µM

## Cc1ccccc1C(=O)N[C@@H](C)c1ccc2ccccc2c1 [Compound 1a]
[3]
  inhibition at 100 µM: 14%

## Cc1ccccc1C(=O)N[C@H](C)c1ccc2ccccc2c1 [Compound 1b, 2-Methyl-N—[(R)-1-(2-naphthyl)ethyl]benzamide]
[3]
  inhibition at 100 µM: > 90%
[1]; [11]
  EC50: > 50 µM

## C[C@@H](NC(=O)c1ccccc1Cl)c1ccc2ccccc2c1 [Compound 3, 2-Chloro-N—[(R)-1-(2-naphthyl)ethyl]benzamide]
[3]
  IC50: 14.5 ± 0.9 µM
  fold decrease in inhibitory potency compared to 1b: 2 fold
[1]; [11]
  EC50: > 50 µM

## CCc1ccccc1C(=O)N[C@H](C)c1ccc2ccccc2c1 [Compound 4, 2-Ethyl-N—[(R)-1-(2-naphthyl)ethyl]benzamide]
[3]
  IC50: > 200 µM

## Cc1cccc(C(=O)N[C@H](C)c2ccc3ccccc3c2)c1 [Compound 5a, 3-Methyl-N—[(R)-1-(2-naphthyl)ethyl]benzamide]
[1]; [11]
  EC50: > 50 µM

## C[C@@H](NC(=O)c1ccccc1O)c1ccc2ccccc2c1 [Compound 5g, 2-Hydroxy-N—[(R)-1-(2-naphthyl)ethyl]benzamide]
[3]
  IC50: > 200 µM

## Cc1ccccc1C(=O)N[C@H](C)c1cccc2ccccc12 [Compound 5h, 2-Methyl-N—[(R)-1-(1-naphthyl)ethyl]benzamide]
[4]
  IC50: > 100 µM
[5]
  toxicity in Vero E6 cells: without toxicity up to the highest concentration tested
[6]
  IC50: > 100 µM
[1]; [11]
  EC50: 10 ± 1.2 µM
[1]; [12]
  EC50: 10 to 15 µM

## Cc1ccc([N+](=O)[O-])cc1C(=O)N[C@H](C)c1cccc2ccccc12 [Compound 5i, 2-Methyl-5-nitro-N—[(R)-1-(1-naphthyl)ethyl]benzamide]
[3]
  IC50: 7.3 ± 0.9 µM
  fold decrease in activity compared to 5h: ~3 fold
[1]; [11]
  EC50: > 50 µM

## C[C@@H](NC(=O)c1ccc(NC(=O)OC(C)(C)C)cc1)c1ccc2ccccc2c1 [Compound 8, 4-N^0-tert-Butoxycarbonylamino-N—[(R)-1-(2-naphthyl)ethyl]-benzamide]
[3]
  IC50: > 200 µM

## Cc1ccccc1C(=O)NC(c1ccccc1)c1ccc2ccccc2c1 (stereo not shown) [Compound 17, 2-Methyl-N-[1-(2-naphthyl)benzyl]benzamide]
[3]; [13]
  IC50: > 200 µM

## Cc1ccc(N)cc1C(=O)N[C@H](C)c1cccc2ccccc12 [Compound 24, 5-Amino-2-methyl-N—[(R)-1-(1-naphthyl)ethyl]benzamide]
[4]
  IC50: > 100 µM
[7]
  PLpro activity recovered after dialysis: Approximately 25%
[5]
  toxicity in Vero E6 cells: without toxicity up to the highest concentration tested
[8]
  IC50: > 100 µM
[9]
  mode of inhibition: competitive inhibitor
[6]
  IC50: > 100 µM
[10]
  IC50: > 100 µM

## CC(=O)Nc1ccc(C)c(C(=O)N[C@H](C)c2cccc3ccccc23)c1 [Compound 25, 5-N-Acetylamino-2-methyl-N—[(R)-1-(1-naphthyl)ethyl]benzamide]
[4]
  IC50: > 100 µM
[3]; read-out: IC50
  IC50: 2.64 ± 0.04 µM
[3]; [13]
  IC50: 2.64 ± 0.04 µM
[3]; read-out: IC50 values (μM) PLpro
  IC50: 2.6 µM
[5]
  toxicity in Vero E6 cells: without toxicity up to the highest concentration tested
[6]
  IC50: > 100 µM
[1]; [11]
  EC50: 13.1 ± 0.7 µM
[1]; [12]
  EC50: 10 to 15 µM

## Cc1ccc(N)cc1C(=O)NC(C)(C)c1cccc2ccccc12 [Compound 29, 5-Amino-2-methyl-N-[1-methyl-1-(1-naphthyl)ethyl]benzamide]
[1]; [11]
  EC50: > 50 µM

## Cc1ccc(CNC(=O)OC(C)(C)C)cc1C(=O)N[C@H](C)c1cccc2ccccc12 [Compound 47, 5-N-tert-Butoxycarbonylmethylamino-2-methyl-N^0—[(R)-1-(1-naphthyl)ethyl]benzamide]
[1]; [11]
  EC50: > 50 µM

## CNCc1ccc(C)c(C(=O)N[C@H](C)c2cccc3ccccc23)c1 [Compound 49]
[1]; [11]
  EC50: 5.2 ± 0.3 µM

## COc1cccc(CNC(=O)C2CCN([C@@H](C)c3ccc4ccccc4c3)CC2)c1 [Compound 61]
[3]
  IC50: 13.2 ± 0.6 µM
[1]; [11]
  EC50: 12 µM

## COc1cccc(CNC(=O)C2CCN([C@H](C)c3ccc4ccccc4c3)CC2)c1 [Compound 62]
[3]
  IC50: 5.8 ± 0.1 µM

## COc1ccc(CNC(=O)C2CCN([C@H](C)c3cccc4ccccc34)CC2)cc1 [Compound 63]
[3]; read-out: IC50
  IC50: 0.34 µM
[1]; [11]
  EC50: 10 µM

## COc1cccc(CNC(=O)C2CCN([C@H](C)c3cccc4ccccc34)CC2)c1 [Compound 64]
[3]; read-out: IC50
  IC50: 0.34 µM
[1]; [11]
  EC50: 8 µM

## COc1ccccc1CNC(=O)C1CCN([C@H](C)c2cccc3ccccc23)CC1 [Compound 67]
[3]; read-out: IC50
  IC50: 1.21 ± 0.04 µM

## C[C@@H](c1cccc2ccccc12)N1CCC(C(=O)NCc2ccc3c(c2)OCO3)CC1 [Compound 68]
[3]; read-out: IC50
  IC50: 0.56 µM
[1]; [11]
  EC50: 3 µM

## C[C@H](c1cccc2ccccc12)N1CCC(C(=O)NCc2ccc3c(c2)OCO3)CC1 [Compound 69]
[1]; [11]
  EC50: 3 µM
